“And” between values parts separate entries of the source, which are not always exact repeats. Identical values can stand only once. Like-named read-outs stand apart in the source and are kept apart here.
What was measured:
rat osteocalcin promoter = test: OCN (osteocalcin) promoter assay in RG-15 (ROS 17/2.8) cells; assay type: cell-based; details: 48 hr treatment, luciferase
Protocol: 3. The OCN (Osteocalcin) Promoter Assay
The OCN Promoter Assay is an indicator and marker for osteoporosis. […] Preferred assay results are less than 50 nM.
(3) Materials and Method for The OCN Promoter Assay:
The activation of osteocalcin by VDR ligands was evaluated in a rat osteoblast-like cell line RG-15 (ROS 17/2.8) stably expressing rat osteocalcin promoter fused with luciferase reporter gene. […] Confluent RG-15 cells maintained in DMEM/F-12 medium (3:1) containing 5% FBS, 300 μg/ml G418 and at 37° C. under 5% CO2/95% air atmosphere were trypsinized (0.25% trypsin) and plated into white opaque 96-well cell culture plates (25000 cells/well). After 24 hr, cells (in DMEM/F-12 medium+2% FBS) were treated with various concentrations of compounds, dissolved in DMSO. The final DMSO concentration remained at 0.01% (v/v). After 48 hr treatment, the medium was removed, cells were lysed with 50 μl of lysis buffer (From Luciferase reporter assay system, Roche Diagnostics, Indianapolis, Ind.) and assayed for luciferase activity using the Luciferase Reporter Gene Assay kit from Boehringer Mannheim as per manufacturer's specifications.

female DBF mice = test: Mouse hypercalcemia assay; assay type: in vivo; details: orally via gavage for 6 days; serum ionized calcium 6 hours after last dosing
From the text: 4. The Mouse Hypercalcemia Assay
(4) Materials and Method for The Mouse Hypercalcemia Assay: […]

[1] = tested on: KERtr cells (Human skin keratinocyte); test: Keratinocyte proliferation assay; assay type: cell-based; details: BrdU incorporation, read-out: Kera. Prolif. IC50
Protocol: 5. The Keratinocyte Proliferation Assay
This Assay is indicative for the treatment of psoriasis.
(5) The Keratinocyte Proliferation Assay:
KERtr cells (Human skin keratinocyte transformed with a retrovirus vector, obtained from ATCC) were plated in 96-well flat-bottomed plates (3000 cells/well) in 100 μl keratinocyte serum free medium supplemented with bovine pituitary extract in the absence of EGF (Life Technologies, Rockville, Md.) and incubated at 37° C. for two days. The cells were treated with various concentrations of VDR ligands (ten-fold serial dilution from 10,000 nM to 0.1 nM in triplicate), dissolved in 100 μl keratinocyte serum free medium supplemented with bovine pituitary extract in the absence of EGF and incubated at 37° C. for 72 hr. BrdU (5-bromo-2′-deoxyuridine) incorporation was analyzed as a measure of DNA replication (Cell proliferation ELISA kit, Roche Diagnostics, Indianapolis, Ind.) and absorbance was measured at 405 nm. Potency values (IC50) values were determined as the concentration (nM) of compound that elicited a half-maximal response.

IL-10 = test: human IL-10 induction assay in PBMCs; assay type: cell-based; details: TPA/PHA treated human PBMCs, IL-10 immunoassay of supernatant
From the text: The evaluation of the novel compounds of the invention for psoriasis is done using the Keratinocyte Proliferation Assay in combination with other assays that measure inhibition of IL-2 production and stimulation of IL-10 production in peripheral blood mononuclear cells (PBMCs).
6. The IL-10 Induction Assay
This is an in vitro efficacy assay for psoriasis, abscess and adhesion. Psoriasis involves both keratinocytes and immune cells. IL-10 is a unique cytokine because it is anti-inflammatory and immunosuppressive. This assay tells us whether a VDRM is able to function as an agonist in PBMCs (primary blood mononuclear cells) or not. A lower EC50 value is desirable in this assay since a compound with a lower EC50 value will be a better agonist in PBMCs.
(6) Materials and Method for human IL-10 Induction Assay:
Isolation of peripheral blood mononuclear cells (PBMCs):
• A. Collect 50 ml of human blood and dilute with media, RPMI-1640. • B. Prepare sterile tubes with ficol. • C. Add diluted blood to tubes. • D. Centrifuge. • E. Discard the top layer and collect the cells from middle layer. • F. Divide all cells into four tubes and add media. • G. Centrifuge. • H. Aspirate off media and resuspend. • I. Collect all cells • J. Centrifuge. at 1200 rpm for 10 minutes. • K. Resuspend in RPMI-1640 with 2% FBS and count cells Stimulation of PBMC: • L. Prepare TPA in DMSO. • M. Dissolve PHA in water. • N. Plate TPA/PHA treated PBMCs in well plates. • O. Incubate. Treatment: • P. Prepare all compound dilutions in plain RPMI-1640 media. • Q. Add diluted compound. • R. Incubate. Sample Collection and assay: • S. Remove all the cells by centrifugation and assay the supernatant for IL-10 by immunoassay. • 1) T. Perform IL-10 assay using anti-human IL-10 antibody coated beads, as described by the manufacturer (Linco Research Inc., St. Charles, Mo.).

[2] = Homo sapiens, Keratinocyte, 72 h

Row | SMILES | EC50 (rat osteocalcin promoter) | Mouse Hypercal (female DBF mice) [µg/kg/day] | IC50 ([1]; 72 hr) [nM] | IC50 (IL-10) [nM] | IC50 (IL-10; Homo sapiens, PBMC) [nM] | IC50 [1, 2] [nM] | EC50 (rat osteocalcin promoter; Rattus norvegicus, 48 h) [nM]
1 | CCC(CC)(c1ccc(OCC(O)C(C)(C)C)c(C)c1)c1ccc(C(=O)N(C)CC(=O)O)c(C)c1 (single isomer, unassigned) [Ex. 19, [(4-{1-Ethyl-1-[4-(2-hydroxy-3,3-dimethyl-butoxy)-3-methyl-phenyl]-propyl}-2-methyl-benzoyl)-methyl-amino]-acetic acid] | 12 nM and 16 nM | 2000 | 82 | 142 | – | – | –
2 | CCC(CC)(c1ccc(OC(C)C(O)C(C)(C)C)c(C)c1)c1ccc(C(=O)N[C@H](C)C(=O)O)c(C)c1 (some centres unmarked) [Ex. 46, (D)-2-(4-{1-ethyl-1-[4-(2-hydroxy-1,3,3-trimethyl-butoxy)-3-methyl-phenyl]-propyl}-2-methyl-benzoylamino)-propionic acid] | 2 nM and 3 nM | 3000 | 21 | – | 33 | – | –
3 | CCC(CC)(c1ccc(-c2nnn[nH]2)cc1)c1ccc(OCC(O)C(C)(C)C)c(C)c1 (single isomer, unassigned) [Ex. 45, 1-(4-{1-Ethyl-1-[4-(1H-tetrazol-5-yl)-phenyl]-propyl}-2-methyl-phenoxy)-3,3-dimethyl-butan-2-ol] | 0.7 nM | 300 | 32 | 15 | – | – | –
4 | CCC(CC)(c1ccc(C(=O)O)cc1)c1ccc(OCC(O)C(C)(C)C)c(Cl)c1 (single isomer, unassigned) [Ex. 37, 3′-[3-chloro-4-(2-hydroxy-3,3-dimethylbutoxy)phenyl]-3′-[4-carboxyphenyl]pentane] | 12 nM | 1000 | 55 | – | 229 | – | –
5 | CCC(CC)(c1ccc(-c2nnn[nH]2)cc1)c1ccc(OCC(O)C(C)(C)C)c(C)c1 (single isomer, unassigned) [Ex. 44, 1-(4-{1-Ethyl-1-[4-(1H-tetrazol-5-yl)-phenyl]-propyl}-2-methyl-phenoxy)-3,3-dimethyl-butan-2-ol] | 0.1 nM | <300 | – | 6 | – | 28 | –
6 | CCC(CC)(c1ccc(OC(C)C(O)C(C)(C)C)c(C)c1)c1ccc(C(=O)O)c(C)c1 (single isomer, unassigned) [Ex. 11, 3′-[4-(2-hydroxy-1,3,3-trimethylbutoxy)-3-methylphenyl]-3′-[4-carboxyl-3-methylphenyl]pentane] | 7 nM | 3000 | – | – | 478 | 308 | –
7 | CCC(CC)(c1ccc(OC(C)C(O)C(C)(C)C)c(C)c1)c1ccc(C(=O)N(C)CC(=O)O)c(C)c1 (single isomer, unassigned) [Ex. 52, [(4-{1-Ethyl-1-[4-(2-hydroxy-1,3,3-trimethyl-butoxy)-3-methyl-phenyl]-propyl}-2-methyl-benzoyl)-methyl-amino]-acetic acid] | 4 nM | >3000 | 52 | – | 154 | – | –
8 | CCC(CC)(c1ccc(OCC(O)C(C)(C)C)c(C)c1)c1ccc(C(=O)NCC(=O)O)c(C)c1 (single isomer, unassigned) [Ex. 25A, (4-{1-ethyl-1-[4-(2-hydroxy-3,3-dimethylbutoxy)-3-methylphenyl]-propyl}-2-methylbenzoylamino)acetic acid] | 0.4 nM | <300 | 1100 | 40 | – | – | –
9 | CCC(CC)(c1ccc(OC(C)C(O)C(C)(C)C)c(C)c1)c1ccc(C(=O)NCC(=O)O)c(C)c1 (single isomer, unassigned) [Ex. 31, 3′-[4-(2-hydroxy-1,3,3-trimethylbutoxy)-3-methylphenyl]-3′-[4-(carboxymethylaminocarbonyl)-3-methylphenyl]pentane] | 1 nM | 3000 | 21 | 295 | – | – | –
10 | CCC(CC)(c1ccc(OCC(O)C(C)(C)C)c(C)c1)c1ccc(C(=O)Nc2nnn[nH]2)c(C)c1 (single isomer, unassigned) [Ex. 26, 3′-[4-(2-hydroxy-3,3-dimethylbutoxy)-3-methylphenyl]-3′-[4-(tetrazol-5-ylaminocarbonyl)-3-methylphenyl]pentane] | 1 nM | 300 | 4 | 52 | – | – | –
11 | CCC(CC)(c1ccc(CC2SC(=O)NC2=O)c(C)c1)c1ccc(OCC(O)C(C)(C)C)c(C)c1 (single isomer, unassigned) [Ex. 50, 5-(4-{1-ethyl-1-[4-(2-hydroxy-3,3-dimethyl-butoxy)-3-methyl-phenyl]-propyl}-2-methyl-benzyl)-thiazolidine-2,4-dione] | 0.2 nM | 300 | 3 | 4 | – | – | –
12 | CCC(CC)(c1ccc(CC2SC(=O)NC2=O)c(C)c1)c1ccc(OCC(O)C(C)(C)C)c(C)c1 (single isomer, unassigned) [Ex. 51, 5-(4-{1-ethyl-1-[4-(2-hydroxy-3,3-dimethyl-butoxy)-3-methyl-phenyl]-propyl}-2-methyl-benzyl)-thiazolidine-2,4-dione] | 1.4 nM | 300 | 26 | 19 | – | – | –
13 | CCC(CC)(c1ccc(CCC(=O)O)c(C)c1)c1ccc(OCC(=O)C(C)(C)C)c(C)c1 [Ex 6, 3′-[4-(2-oxo-3,3-dimethylbutoxy)-3-methylphenyl]-3′-[4-(2-carboxylethyl)-3-methylphenyl]pentane] | – | 10 | – | – | 55 | 2 | 0.3
14 | CCC(CC)(c1ccc(OCC(O)C(C)(C)C)c(C)c1)c1ccc(C(=O)NCC(=O)O)c(C)c1 (single isomer, unassigned) [Ex. 25B, (4-{1-ethyl-1-[4-(2-hydroxy-3,3-dimethylbutoxy)-3-methylphenyl]-propyl}-2-methylbenzoylamino)acetic acid] | 2 nM and 3 nM | 1000 | 26 | 158 | – | – | –
15 | CCC(CC)(c1ccc(OCC(O)C(C)(C)C)c(C)c1)c1ccc(C(=O)N(C)CC(=O)O)c(C)c1 (single isomer, unassigned) [Ex. 18, [(4-{1-ethyl-1-[4-(2-hydroxy-3,3-dimethyl-butoxy)-3-methyl-phenyl]-propyl}-2-methyl-benzoyl)-methyl-amino]-acetic acid] | – | 1000 | 1000 | 47 | – | – | –
16 | CCC(CC)(c1ccc(OC(C)C(O)C(C)(C)C)c(C)c1)c1ccc(C(=O)Nc2nnn[nH]2)c(C)c1 (single isomer, unassigned) [Ex. 29, 3′-[4-(2-hydroxy-1,3,3-trimethylbutoxy)-3-methylphenyl]-3′-[4-(tetrazol-5-ylaminocarbonyl)-3-methylphenyl]pentane] | – | 3000 | 49 | – | 153 | – | –
